A word on the IC50: it is the concentration at which inhibition is half-maximal.

Like-named read-outs stand apart in the source and are kept apart here.

Series [1] concerns the target KDM5A (Homo sapiens (Human), UniProt P29375). Kind of series: Biochemical KDM5A Inhibition Assay (HTRF). Particulars: KDM5A protein, biotin-labelled H3K4-Me3 substrate. How it is done: Biochemical KDM5A Inhibition Assay
Using 384-well white Greiner784075 (Greiner), representative compounds were characterized for their inhibition of KDM5A using HTRF® technology (Cisbio Bioassays). Briefly, the test compounds, reference compounds, and DMSO control (typical compound concentration range 1 μM-[…], final assay concentration (FAC*) of DMSO 0.5%) were added to 384-well plate by the Echo® acoustic dispensing platform (Labcyte). Five (5) 1l of KDM5A protein (produced by the method described in Nat Chem Biol 12, 531-538 (2016)). (5-20 nM FAC*) in assay buffer (50 mM MES, 50 mM NaCl, 1 mM TCEP, 0.01% v/v Tween 20, 0.03% BSA, pH 6.5) was added to wells and plates were incubated for 10-20 minutes at 25 degrees celsius. Then, 5 μl of alpha-ketoglutaric acid (100 μM FAC*), biotin-labelled H3K4-Me3 substrate (Anaspec Cat #AS-64357-1; 200 nM FAC*), Fe(II)SO4 (100 μM FAC*) and ascorbic acid (2 mM FAC*) in assay buffer was added to wells and plates were incubated for 20 minutes at room temperature. The reaction was stopped with the addition of 10 μl of anti-H3K4-Me2-Eu(K) (Cisbio Bioassays Cat #61KA2KAH; 0.75 nM FAC**)+Streptavidin XL665 (Cisbio Bioassays Cat #610SAXLB; 25 nM FAC**) in HTRF detection buffer (Cisbio Bioassays Cat #62SDBRDF). The mixture was incubated for 30 minutes at room temperature before 340 nm excitation and measurement of dual emission at 620 nm and 665 run. *FAC: final assay concentration calculated based on 10 μl of the assay buffer**FAC: final assay concentration calculated based on 20 μl of the detection buffer
The raw data (a 665 nm and a 620 nm reading from each well) for individual assay plates were analyzed. The ratio of emissions was calculated using the following calculation: Ratio=(665 nm emission/620 nm emission)×10000. […] Compound IC50 values were calculated from graphs of % inhibition plotted against compound concentration, using a four parameter curve fit. [Results]

The nature of series [2]: Metabolic Stability in Human Liver Microsomes. It is filed as in vitro ADME. How it is done: Metabolic Stability in Human Liver Microsomes
Human liver microsome (BD Gentest Corporation, Cat No. #452161) incubations were conducted in duplicate in 96-well plates. Each well contains 40 μL of 0.1 M potassium phosphate buffer (pH 7.4), 4.125 mM MgCl2, 0.625 mg/mL liver microsomes, and test compound (1.25 μM). After 5-min preincubation at 37° C., 10 uL of 5.0 mM NADPH in 0.1M potassium phosphate buffer was added to initiate the enzymatic reaction. The final component concentrations are 0.1M potassium phosphate buffer (pH 7.4), 1.0 mM NADPH, 3.3 mM MgCl2, 0.5 mg/mL liver microsomes, and test compound (1.0 μM). Reactions were terminated at 0 and 60 min by adding 200 μL of ice-cold acetonitrile containing internal standard.
LC-MS/MS analysis was conducted as specified below.
The remaining at 60 min (%) of test compound was calculated from the peak area ratio (test compound/internal standard) of samples collected 0 and 60 min after the start of the reaction according to the formula described below. Remaining at 60 min (%)=peak area ratio of sample collected at 60 min/peak area ratio of sample collected at 0 min×100 [Results]
On the technique in general: Liver microsomes are a subcellular fraction often used to study metabolism.

A short description of series [3]: Brain Concentration in Mice. It is filed as in vivo. The conditions noted are these: mouse, mice (C57BL/6). As for the experimental part: Brain Concentration in Mice
Test compounds were orally administered to mice (C57BL/6) at 1 or 3 mg/kg. Brain samples were collected 2 h after the administration and homogenized with 3-fold volumes of distilled water.
LC-MS/MS analysis was conducted as specified below. Standard calibration samples were prepared using the same matrix and analyzed in the same manner.
Standard calibration samples were analyzed to calculate a regression equation from the peak area ratio (test compound/internal standard). The peak area ratio was determined for a measurement sample and assigned to the regression equation to calculate an assay value.

Where [4] appears, read: 0.5 mg/mL liver microsomes, 1.0 μM test compound, 1.0 mM NADPH, 37° C., 60 min.

Sequence of KDM5A (P29375 whole entry): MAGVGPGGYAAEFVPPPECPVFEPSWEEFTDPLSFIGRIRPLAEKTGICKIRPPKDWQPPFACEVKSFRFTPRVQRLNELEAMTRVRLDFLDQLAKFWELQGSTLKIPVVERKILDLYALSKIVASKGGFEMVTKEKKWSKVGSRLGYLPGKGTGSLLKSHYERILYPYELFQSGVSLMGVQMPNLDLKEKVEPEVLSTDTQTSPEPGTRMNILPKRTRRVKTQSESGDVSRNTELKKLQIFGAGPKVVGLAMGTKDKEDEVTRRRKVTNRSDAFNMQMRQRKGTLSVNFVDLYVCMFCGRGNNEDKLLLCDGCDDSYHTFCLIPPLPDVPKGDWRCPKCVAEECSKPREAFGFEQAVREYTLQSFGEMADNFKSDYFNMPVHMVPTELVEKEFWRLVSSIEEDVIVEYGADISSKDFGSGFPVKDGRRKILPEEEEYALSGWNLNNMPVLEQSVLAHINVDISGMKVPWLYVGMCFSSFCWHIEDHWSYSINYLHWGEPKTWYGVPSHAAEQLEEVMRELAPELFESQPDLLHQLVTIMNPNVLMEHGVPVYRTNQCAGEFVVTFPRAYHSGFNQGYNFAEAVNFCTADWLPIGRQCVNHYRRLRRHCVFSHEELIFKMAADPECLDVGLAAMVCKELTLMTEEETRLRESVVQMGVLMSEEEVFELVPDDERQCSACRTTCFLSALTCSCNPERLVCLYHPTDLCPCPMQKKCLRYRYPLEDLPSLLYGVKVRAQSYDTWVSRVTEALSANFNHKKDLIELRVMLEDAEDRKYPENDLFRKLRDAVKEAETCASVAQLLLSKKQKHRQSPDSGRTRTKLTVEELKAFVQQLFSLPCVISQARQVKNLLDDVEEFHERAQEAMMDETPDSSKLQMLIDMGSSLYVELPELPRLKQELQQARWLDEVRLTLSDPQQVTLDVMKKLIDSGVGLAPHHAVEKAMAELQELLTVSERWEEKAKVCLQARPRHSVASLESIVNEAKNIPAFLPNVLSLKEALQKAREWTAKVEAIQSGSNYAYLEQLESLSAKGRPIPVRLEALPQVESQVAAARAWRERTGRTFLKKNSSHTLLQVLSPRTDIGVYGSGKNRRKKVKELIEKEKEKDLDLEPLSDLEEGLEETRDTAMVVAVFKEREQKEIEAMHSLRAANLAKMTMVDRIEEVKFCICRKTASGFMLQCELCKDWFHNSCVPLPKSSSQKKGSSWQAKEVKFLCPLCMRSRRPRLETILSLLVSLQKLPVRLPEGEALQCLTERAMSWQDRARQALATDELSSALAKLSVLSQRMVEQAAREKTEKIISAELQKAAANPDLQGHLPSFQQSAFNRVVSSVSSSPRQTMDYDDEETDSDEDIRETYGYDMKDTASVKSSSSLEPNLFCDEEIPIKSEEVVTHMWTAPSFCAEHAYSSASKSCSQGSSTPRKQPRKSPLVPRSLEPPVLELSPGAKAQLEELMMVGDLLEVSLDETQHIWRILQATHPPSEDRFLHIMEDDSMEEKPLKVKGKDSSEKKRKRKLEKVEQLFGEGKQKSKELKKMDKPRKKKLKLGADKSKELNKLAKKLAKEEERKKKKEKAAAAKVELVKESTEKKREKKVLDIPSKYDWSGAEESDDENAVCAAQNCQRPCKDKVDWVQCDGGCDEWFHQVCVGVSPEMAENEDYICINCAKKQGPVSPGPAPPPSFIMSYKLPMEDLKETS

For the compound `CC[C@H](C)n1cnc(C(=O)N2C[C@@H]3[C@H](C2)[C@H]3C2=NOC(C)(C)C2)c1` [Example 12, {1-[(2S)-butan-2-yl]-1H-imidazol-4-yl}[(1R,5S,6S)-6-(5,5-dimethyl-4,5-dihydro-1,2-oxazol-3-yl)-3-azabicyclo[3.1.0]hex-3-yl]methanone], the IC50 in series [1] was 0.06 µM. The “Metabolic stability in human liver microsomes (% remaining at 60 min)” value (“Metabolic stability … (% remaining at 60 min)” below) in series [2] (human, microsomes, 1 h, 1 μM, pH 7.4) came to 100%. The concentration at 2 h in series [3] (po, orally administered, 1 mg/kg, brain 2 h after administration, read-out: Unbound-Brain Concentration at 2 h at 1 mg/kg) was 10.8 ng/g.

In series [1], `CCN1C([C@H]2[C@@H]3CN(C(=O)c4cn(C(C)C)cn4)C[C@@H]32)=NOC1(C)C` [Example 60, [(1R,5S,6r)-6-(4-ethyl-5,5-dimethyl-4,5-dihydro-1,2,4-oxadiazol-3-yl)-3-azabicyclo[3.1.0]hex-3-yl](1-isopropyl-1H-imidazol-4-yl)methanone] yielded an IC50 of 0.2 µM. Besides, in series [2] (human, microsomes, 1 h), the “Metabolic stability … (% remaining at 60 min)” value came out at 102%.

With `CC(C)n1cnc(C(=O)N2C[C@@H]3[C@H](C2)[C@H]3C(=O)N(C)C2(C#N)CC2)c1` [Example 69, (1R,5S,6r)-N-(1-cyanocyclopropyl)-N-methyl-3-[1-(propan-2-yl)-1H-imidazole-4-carbonyl]-3-azabicyclo[3.1.0]hexane-6-carboxamide], it took 0.2 µM to reach half-maximal inhibition in series [1] (IC50). Further, the “Metabolic stability … (% remaining at 60 min)” value in series [2] (setting [4]) was determined as 89%.

Turning to `C[C@@H](c1nccs1)n1cnc(C(=O)N2C[C@@H]3[C@H](C2)[C@H]3C2=NOC(C)(C)C2)c1` [Example 27, [(1R,5S,6S)-6-(5,5-dimethyl-4,5-dihydro-1,2-oxazol-3-yl)-3-azabicyclo[3.1.0]hex-3-yl]{1-[(1S)-1-(1,3-thiazol-2-yl)ethyl]-1H-imidazol-4-yl}methanone], in series [1], the IC50 was found to be 1 µM. Further, in series [2] (human, microsomes, 1 h), the “Metabolic stability … (% remaining at 60 min)” value is listed as 97%.

`CC(C)n1cnc(C(=O)N2C[C@@H]3[C@H](C2)[C@H]3C2=NOC(C)(C)N2C)c1` [Example 59, (1-isopropyl-1H-imidazol-4-yl)[(1R,5S,6r)-6-(4,5,5-trimethyl-4,5-dihydro-1,2,4-oxadiazol-3-yl)-3-azabicyclo[3.1.0]hex-3-yl]methanone] had an IC50 in series [1] of 0.02 µM. In addition, the “Metabolic stability … (% remaining at 60 min)” value in series [2] (human, microsomes, 1 h) turned out to be 100%.

Regarding `CC(C)NC(=O)[C@H]1[C@@H]2CN(C(=O)c3cc(C(C)C)[nH]n3)C[C@@H]21` [Example 136, (1R,5S,6r)-N-(propan-2-yl)-3-[5-(propan-2-yl)-1H-pyrazole-3-carbonyl]-3-azabicyclo[3.1.0]hexane-6-carboxamide], in series [1], 0.05 µM corresponded to half-maximal inhibition (IC50). Further, in series [2] (human, microsomes, 1 h), the “Metabolic stability … (% remaining at 60 min)” value stood at 97%.

In series [1], `Cc1nnc([C@H]2[C@@H]3CN(C(=O)c4cc(C(C)C)[nH]n4)C[C@@H]32)o1` [Example 119, (5-isopropyl-1H-pyrazol-3-yl)[(1R,5S,6r)-6-(5-methyl-1,3,4-oxadiazol-2-yl)-3-azabicyclo[3.1.0]hex-3-yl]methanone] showed an IC50 of 0.3 µM. In series [2] (human, microsomes, 1 h), the “Metabolic stability … (% remaining at 60 min)” value is listed as 102%.

With `CC(C)c1cc(C(=O)N2C[C@@H]3[C@H](C2)[C@@]3(C)C(=O)NC(C)(C)C)n[nH]1` [Example 145, (1R,5S,6r)-N-tert-butyl-6-methyl-3-[5-(propan-2-yl)-1H-pyrazole-3-carbonyl]-3-azabicyclo[3.1.0]hexane-6-carboxamide], in series [1], the IC50 came to 0.09 µM. Besides, the “Metabolic stability … (% remaining at 60 min)” value in series [2] (human, microsomes, 1 h) was 99%.

Take `CC(C)c1cc(C(=O)N2CC[C@@H](NC(=O)C3CC3)C2)[nH]n1` [comparative compound, (R)—N-(1-(3-isopropyl-1H-pyrazole-5-carbonyl)pyrrolidin-3-yl)cyclopropane carboxamide, reference compound]: the concentration at 2 h in series [3] (brain, oral, 2 h, comparative compound, dose not restated in the sentence, read-out: Unbound-Brain Concentration at 2 h) is 2.5 ng/g.

For `CC(C)n1cnc(C(=O)N2C[C@@H]3[C@H](C2)[C@H]3C(=O)C2CC2)c1` [Example 75, cyclopropyl{(1R,5S,6r)-3-[(1-isopropyl-1H-imidazol-4-yl)carbonyl]-3-azabicyclo[3.1.0]hex-6-yl}methanone], the IC50 in series [1] was 0.4 µM. For the same compound, in series [2] (human, microsomes, 1 h), the “Metabolic stability … (% remaining at 60 min)” value is on record as 102%.

In series [1], `CC(C)n1cnc(C(=O)N2C[C@@H]3[C@H](C2)[C@@]3(C)C(=O)NC(C)(C)C)c1` [Example 87, (1R,5S,6r)-N-tert-butyl-6-methyl-3-[1-(propan-2-yl)-1H-imidazole-4-carbonyl]-3-azabicyclo[3.1.0]hexane-6-carboxamide] showed an IC50 of 0.04 µM. Also, in series [2] (setting [4]), the “Metabolic stability … (% remaining at 60 min)” value amounted to 99%.

`CC(C)n1cnc(C(=O)N2C[C@@H]3[C@H](C2)[C@H]3C(=O)NC(C)(C)C)c1` [Example 65, (1R,5S,6r)-N-tert-butyl-3-[1-(propan-2-yl)-1H-imidazole-4-carbonyl]-3-azabicyclo[3.1.0]hexane-6-carboxamide] had an IC50 in series [1] of 0.02 µM. The “Metabolic stability … (% remaining at 60 min)” value in series [2] (setting [4]) is given as 93%.

Compound `COc1ccc2nnc([C@H]3[C@@H]4CN(C(=O)c5cc(C(C)C)[nH]n5)C[C@@H]43)n2c1` [Example 131, (5-isopropyl-1H-pyrazol-3-yl)[(1R,5S,6r)-6-(6-methoxy[1,2,4]triazolo[4,3-a]pyridin-3-yl)-3-azabicyclo[3.1.0]hex-3-yl]methanone] gave an IC50 in series [1] of 0.01 µM. Moreover, the “Metabolic stability … (% remaining at 60 min)” value in series [2] (human, microsomes, 1 h) is recorded as 84%.

Turning to `CC(C)c1cc(C(=O)N2C[C@@H]3[C@H](C2)[C@H]3c2nncn2-c2ccccc2)n[nH]1` [Example 121, (5-isopropyl-1H-pyrazol-3-yl)[(1R,5S,6r)-6-(4-phenyl-4H-1,2,4-triazol-3-yl)-3-azabicyclo[3.1.0]hex-3-yl]methanone], in series [1], the IC50 was 0.04 µM. The “Metabolic stability … (% remaining at 60 min)” value in series [2] (human, microsomes, 1 h) was 114%.

Turning to `CC(C)c1cc(C(=O)N2C[C@@H]3[C@H](C2)[C@H]3C2=NO[C@H]3C[C@@H]23)n[nH]1` [Example 96, (5-isopropyl-1H-pyrazol-3-yl){(1R,5S,6r)-6-[(1S,5S)-2-oxa-3-azabicyclo[3.1.0]hex-3-en-4-yl]-3-azabicyclo[3.1.0]hex-3-yl}methanone], the midpoint of inhibition in series [1], the IC50, lay at 0.03 µM. For the same compound, the “Metabolic stability … (% remaining at 60 min)” value in series [2] (human, microsomes, 1 h) worked out at 83%.

With `Cc1nnc([C@H]2[C@@H]3CN(C(=O)c4cc(C(C)C)[nH]n4)C[C@@H]32)n1C1CCC1` [Example 124, [(1R,5S,6r)-6-(4-cyclobutyl-5-methyl-4H-1,2,4-triazol-3-yl)-3-azabicyclo[3.1.0]hex-3-yl](5-isopropyl-1H-pyrazol-3-yl)methanone], half-maximal inhibition in series [1] (IC50) was put at 0.04 µM. For the same compound, the “Metabolic stability … (% remaining at 60 min)” value in series [2] (human, microsomes, 1 h) is 97%.

For `C[C@]1(C2=NOC3(CC3)C2)[C@@H]2CN(C(=O)c3cc(C4CC4)[nH]n3)C[C@@H]21` [Example 144, (5-cyclopropyl-1H-pyrazol-3-yl)[(1R,5S,6r)-6-methyl-6-(4-oxa-5-azaspiro[2.4]hept-5-en-6-yl)-3-azabicyclo[3.1.0]hex-3-yl]methanone], the IC50 in series [1] was 0.02 µM. The “Metabolic stability … (% remaining at 60 min)” value in series [2] (setting [4]) worked out at 101%.

The record behind these values is patent publication US11691968B2, “Compound having KDM5 inhibitory activity and pharmaceutical use thereof” (ONO PHARMACEUTICAL CO., LTD., priority 2020, dated 2023).
